The values that follow come from patent US9944613B2, “Fumagillol spirocyclic compounds and fused bicyclic compounds and methods of making and using same” (Zafgen, Inc., priority 2015, dated 2018).

Structures are written as SMILES. Where a name gives a salt, the structure may show the parent alone. Read-outs that look alike come from different tables or passages of the source.

The target in one assay is T1, recombinant human MetAP2 (Homo sapiens, UniProt P50579).
T1 construct: Flag; made in house
Briefly: Inhibition of recombinant human MetAP2 activity (MAS peptide / amino acid oxidase / Amplex assay). In kind it is biochemical. Here is the method:
Compounds are tested for their capacity to inhibit recombinant human MetAP2 activity using the following assay.
Flag tagged Human recombinant MetAP2 expressed and isolated for use as the enzyme source. 10 mM stock solutions of compounds were prepared in 100% DMSO and further diluted in 100% DMSO required concentration to 1 mM stocks. The stock compound solutions and DMSO vehicle controls were diluted to target final compound concentrations using assay buffer to a final concentration of 50 mM HEPES containing 100 mM NaCl, pH adjusted to 7.5. The MAS peptide was formulated to a 7.5 mM stock in distilled water and prior to use further diluted 1:4. […] 40 μl of enzyme was mixed with 100 μl of MnCl2 then further diluted in assay buffer to a final concentration of 16 μg/ml. To test for compound effect on MetAP2 enzyme activity, 5 μl of test compound, 10 μl of MAS substrate/amino acid oxidase mixture, 10 μl of MetAP2 was added to test wells in a 384 well black plate with blank wells containing no enzyme, replaced with 10 μl of assay buffer. All compounds were tested in duplicate on two occasions on the same day.
The plate was sealed with a TopSeal A cover and mixed briefly on an orbital mixer at 900 rpm. The plate was incubated for a further 25 minutes at 25° C. A 5× stock of Amplex buffer was prepared (0.25M sodium phosphate, pH 7.4) and stored at 4° C. When preparing for use the stock was diluted with distilled water. […] Horse radish peroxidase was diluted in […] of Amplex buffer, 100 μl of this was combined with 50 μl of Amplex Ultrared in […] of 1× Amplex buffer to generate sufficient detection reagent for a 384 well plate. 25 μl detection reagent was added to each well of the test plate, which was re-sealed and mixed briefly on an orbital shaker. The plate was transferred to an Envision Multi-label reader and RFU measured corresponding to excitation 531 nm and emission 595 nm. At the end of the MetAP2 incubation 25 μl Amplex/HRP mixture per well was added and the plate read plate on a plate reader.

The test system of assay [1] is Diet Induced Obese (DIO) C57BL/6 mice. Briefly: 10 day DIO mouse model, weight loss vs. vehicle. It counts as in vivo. The conditions noted are these: 240 h, 0.3 mpk sc once a day for 10 days. An excerpt: The objective of this study design was to investigate the efficacy of disclosed compounds in a 10 day DIO mouse model. Effects on body weight, food intake, hematology and blood chemistry were the primary readouts of this study design. Male, Diet Induced Obese (DIO) C57BL/6 mice, 19-21 weeks of age (13-15 weeks on high fat diet) were ordered from a certified vendor and upon receipt were housed on irradiated corncob bedding in micro-isolator cages on a 12-hour light-dark cycle (0700-1900) at 68-74° F. and 30-70% humidity. Mice were fed Research Diets D12492 (60% Kcal fat, 20% Kcal carbohydrate and 20% protein) and provided water ad libitum. DIO mice were received and housed in the facility for approximately two weeks prior to the start of test article administration. On Day −4 or −3, mice were randomized into study groups based on body weight and body weights were continued to be recorded daily for the duration of the study. Daily food intake was assessed starting on Study Day −2 by weighing of the food with hopper together to avoid loss of food in transfer.
Compounds were formulated into a 100% DMSO stock (at 9 mg/mL) prior to the start, and further diluted into the target working concentration using the vehicle of 10% DMSO in water. Prior to test article administration, starting on Day −3 a dosing acclimation occured with all animals receiving a subcutaneous injection of vehicle (10% DMSO) only for 3 days. Starting on Day 1, test compounds or vehicle were administered based on individual body weight, subcutaneously, once a day for 10 days. All mice were sacrificed on Day 11, 24 hours following the final dosing on Day 10. After sacrifice, whole blood was collected and analyzed for hematology and blood chemistry parameters.
Compounds were tested for weight loss vs. vehicle at 0.3 and 1.0 mpk sc (mg per kg animal weight delivered subcutaneously), and the results are shown in Table 2 below.

[2] abbreviates: Flag tagged human recombinant MetAP2, 25 minutes at 25° C., read-out: MetAP2 IC50.

T1 sequence (P50579 whole entry): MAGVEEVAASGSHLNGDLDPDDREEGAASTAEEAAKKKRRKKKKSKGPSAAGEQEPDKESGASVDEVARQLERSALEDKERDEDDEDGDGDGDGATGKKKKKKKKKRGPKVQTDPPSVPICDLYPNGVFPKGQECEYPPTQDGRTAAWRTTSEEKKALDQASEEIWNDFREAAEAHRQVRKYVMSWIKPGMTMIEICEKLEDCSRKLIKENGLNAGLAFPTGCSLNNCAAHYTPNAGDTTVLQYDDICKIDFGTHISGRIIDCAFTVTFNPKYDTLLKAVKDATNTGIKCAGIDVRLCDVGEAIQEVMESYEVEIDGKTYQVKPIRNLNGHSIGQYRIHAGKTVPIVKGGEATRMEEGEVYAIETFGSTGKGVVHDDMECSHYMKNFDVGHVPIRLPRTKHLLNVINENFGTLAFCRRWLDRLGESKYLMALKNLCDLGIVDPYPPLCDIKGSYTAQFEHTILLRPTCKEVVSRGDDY

In general, IC50 refers to the point on the concentration scale where inhibition reaches its midpoint. Usually inhibition in vivo stands for the percentage by which the read-out fell short of the control. A higher inhibition in vivo goes with a response far below the control. In the case of `CO[C@@H]1[C@H](OC(=O)NC2CC3(CCN(C)CC3)C2)CC[C@]2(CO2)[C@H]1[C@@]1(C)O[C@@H]1CC=C(C)C` [Example 7, (3R,4S,5S,6R)-5-methoxy-4-((2R,3R)-2-methyl-3-(3-methylbut-2-enyl)oxiran-2-yl)-1-oxaspiro[2.5]octan-6-yl 7-methyl-7-azaspiro[3.5]nonan-2-ylcarbamate formate], the concentration for half-maximal inhibition (IC50) on recombinant human MetAP2 (setting [2]) is below 50 nM. Also, the inhibition in vivo at 0.3 mg/kg in assay [1] was found to be 1.9%.
The corresponding values for `CO[C@@H]1[C@H](OC(=O)N2CC3(CCN(C)CC3)C2)CC[C@]2(CO2)[C@H]1[C@@]1(C)O[C@@H]1CC=C(C)C` [Example 8, (3R,4S,5S,6R)-5-methoxy-4-((2R,3R)-2-methyl-3-(3-methylbut-2-enyl)oxiran-2-yl)-1-oxaspiro[2.5]octan-6-yl 7-methyl-2,7-diazaspiro[3.5]nonane-2-carboxylate formate] are below 50 nM and 6.2%.
Take `CO[C@@H]1[C@H](OC(=O)NC2CC3(CCN(C)C3)C2)CC[C@]2(CO2)[C@H]1[C@@]1(C)O[C@@H]1CC=C(C)C` (stereo partly drawn) [Example 11, (3R,4S,5S,6R)-5-methoxy-4-((2R,3R)-2-methyl-3-(3-methylbut-2-enyl)oxiran-2-yl)-1-oxaspiro[2.5]octan-6-yl 6-methyl-6-azaspiro[3.4]octan-2-ylcarbamate formate]: the IC50 on recombinant human MetAP2 is below 50 nM. The compound further showed an inhibition in vivo at 0.3 mg/kg in assay [1] of 6%.
For `CO[C@@H]1[C@H](OC(=O)N2CC3(CN(C)C3)C2)CC[C@]2(CO2)[C@H]1[C@@]1(C)O[C@@H]1CC=C(C)C` [Example 12, (3R,4S,5S,6R)-5-methoxy-4-((2R,3R)-2-methyl-3-(3-methylbut-2-enyl)oxiran-2-yl)-1-oxaspiro[2.5]octan-6-yl 6-methyl-2,6-diazaspiro[3.3]heptane-2-carboxylate], the IC50 on recombinant human MetAP2 (setting [2]) is below 50 nM. In assay [1], this compound yielded an inhibition in vivo at 0.3 mg/kg of 1.8%.
On to `CO[C@@H]1[C@H](OC(=O)N2C[C@H]3CN(C)C[C@H]3C2)CC[C@]2(CO2)[C@H]1[C@@]1(C)O[C@@H]1CC=C(C)C` [Example 20, (3aR,6aS)-((3R,4S,5S,6R)-5-methoxy-4-((2R,3R)-2-methyl-3-(3-methylbut-2-enyl)oxiran-2-yl)-1-oxaspiro[2.5]octan-6-yl) 5-methylhexahydropyrrolo[3,4-c]pyrrole-2(1H)-carboxylate formate], for which the IC50 at recombinant human MetAP2 (setting [2]) is below 50 nM. This compound also registered an inhibition in vivo at 0.3 mg/kg in assay [1] of 1.4%.
For `CO[C@@H]1[C@H](OC(=O)N2CC3(C2)CS(=O)(=O)C3)CC[C@]2(CO2)[C@H]1[C@@]1(C)O[C@@H]1CC=C(C)C` [Example 23, (3R,4S,5S,6R)-5-methoxy-4-((2R,3R)-2-methyl-3-(3-methylbut-2-enyl)oxiran-2-yl)-1-oxaspiro[2.5]octan-6-yl 2-thia-6-azaspiro[3.3]heptane 2,2-dioxide-6-carboxylate], the concentration for half-maximal inhibition (IC50) on recombinant human MetAP2 lay in the range of 50 to 500 nM. For the same compound, at 0.3 mg/kg the inhibition in vivo in assay [1] was 2%.
Turning to `CO[C@@H]1[C@H](OC(=O)N2CC3(CNC(=O)C3)C2)CC[C@]2(CO2)[C@H]1[C@@]1(C)O[C@@H]1CC=C(C)C` [Example 25, (3R,4S,5S,6R)-5-methoxy-4-((2R,3R)-2-methyl-3-(3-methylbut-2-enyl)oxiran-2-yl)-1-oxaspiro[2.5]octan-6-yl 7-oxo-2,6-diazaspiro[3.4]octane-2-carboxylate], the IC50 on recombinant human MetAP2 was below 50 nM. Also, in assay [1], 0.3 mg/kg produced 2% inhibition in vivo.
`COC(=O)N1C[C@@H]2CN(C(=O)O[C@@H]3CC[C@]4(CO4)[C@@H]([C@@]4(C)O[C@@H]4CC=C(C)C)[C@@H]3OC)C[C@@H]2C1` [Example 42, (3aR,6aS)-2-((3R,4S,5S,6R)-5-methoxy-4-((2R,3R)-2-methyl-3-(3-methylbut-2-enyl)oxiran-2-yl)-1-oxaspiro[2.5]octan-6-yl) 5-methyl tetrahydropyrrolo[3,4-c]pyrrole-2,5(1H,3H)-dicarboxylate] displayed an inhibition in vivo at 0.3 mg/kg in assay [1] of 12.4%.
